# In US5114967A, “Antibiotic alisamycin and its use” (Hoechst Aktiengesellschaft, priority 1990, dated 1992):
# Experiments:
# [1] = test system: Streptococcus faecalis UD8b; settings: Enterococcus faecalis
# Piriicularia oryzae [2] = test: agar-well method in Antibiotic Assay medium; type: cell-based
# [3] = test system: Streptococcus faecalis Eder; settings: Enterococcus faecalis
# [4] = test system: Staphylococcus aureus 20424
# [5] = test system: Streptococcus faecalis Eder; test: agar-well method in Antibiotic Assay medium; settings: Enterococcus faecalis, read-out: Zone diam
# Candida albicans [6] = test: agar-well method in Antibiotic Assay medium; settings: read-out: Zone diam
# gram-negative bacteria = test: antibacterial activity (general statement); type: cell-based
# Botrytis cinerea 47 [7] = test system: Botrytis cinerea 47
# gram-positive bacteria = test: antibacterial activity (general statement); type: cell-based
# solubility = type: physicochemical
# Candida albicans [8] = test system: Candida albicans
# [9] = test system: Staphylococcus aureus E88
# [10] = test system: Staphylococcus aureus E88; test: agar-well method in Antibiotic Assay medium; settings: E88, read-out: Zone diam
# [11] = test system: Staphylococcus aureus 209 p; test: agar-well method in Antibiotic Assay medium; settings: read-out: Zone diam
# [12] = test system: Staphylococcus aureus 209 p
# Piriicularia oryzae [13] = type: cell-based
# [14] = test system: Streptococcus faecalis 23241; test: agar-well method in Antibiotic Assay medium; settings: Enterococcus faecalis, 23241, read-out: Zone diam
# [15] = test system: Streptococcus faecalis UD8b; test: agar-well method in Antibiotic Assay medium; settings: Enterococcus faecalis, read-out: Zone diam
# Botrytis cinerea 47 [16] = test: agar-well method in Antibiotic Assay medium; settings: Botrytis cinerea, 47, read-out: Zone diam
# [17] = test system: Staphylococcus aureus 20424; test: agar-well method in Antibiotic Assay medium; settings: Staphylococcus aureus, 20424, read-out: Zone diam
# [18] = test system: Streptococcus faecalis 23241; settings: Enterococcus faecalis
smiles,measurement,setting,value
O=C(/C=C/C=C/C1CCCCC1)NC1=CC(O)(/C=C/C=C/C=C/C(=O)NC2=C(O)CCC2=O)C2OC2C1=O (centres unmarked) [Alisamycin],antitumor activity,antitumor activity,found to have antitumor
same,MIC,[1],> 50 µg/mL
same,zone of inhibition at 32 µg/mL,Piriicularia oryzae [2]; 32 μg/ml,11 mm
same,zone of inhibition at 500 µg/mL,Piriicularia oryzae [2]; 500 μg/ml,15 mm
same,MIC,[3],6.4 µg/mL
same,MIC,[4],3.2 µg/mL
same,zone of inhibition at 32 µg/mL,[5],16 mm
same,zone of inhibition at 500 µg/mL,[5],23 mm
same,zone of inhibition at 500 µg/mL,Candida albicans [6],10 mm
same,activity against gram-negative bacteria,gram-negative bacteria,active
same,MIC,Escherichia coli 9632,> 50 µg/mL
same,antiparasitic activity,antiparasitic activity,antiparasitic activities
same,MIC,Botrytis cinerea 47 [7],> 50 µg/mL
same,activity against gram-positive bacteria,gram-positive bacteria,active
same,solubility,solubility; acetonitrile,fairly soluble
same,solubility,solubility; chloroform,fairly soluble
same,solubility,solubility; dimethylsulfoxide,very soluble
same,solubility,solubility; ethanol,poorly soluble
same,solubility,solubility; ethyl acetate,fairly soluble
same,solubility,solubility; hexane,poorly soluble
same,solubility,solubility; methanol,poorly soluble
same,solubility,solubility; methylene chloride,fairly soluble
same,solubility,solubility; petroleum ether,poorly soluble
same,solubility,solubility; propylene glycol,very soluble
same,solubility,solubility; water,poorly soluble
same,MIC,Candida albicans [8],50 µg/mL
same,MIC,[9],6.4 µg/mL
same,zone of inhibition at 32 µg/mL,[10],14 mm
same,zone of inhibition at 500 µg/mL,[10],27 mm
same,zone of inhibition at 32 µg/mL,[11],18.5 mm
same,zone of inhibition at 500 µg/mL,[11],26 mm
same,MIC,[12],1.6 µg/mL
same,MIC,Piriicularia oryzae [13],> 50 µg/mL
same,zone of inhibition at 32 µg/mL,[14],13 mm
same,zone of inhibition at 500 µg/mL,[14],22 mm
same,zone of inhibition at 32 µg/mL,[15],13 mm
same,zone of inhibition at 500 µg/mL,[15],16 mm
same,zone of inhibition at 500 µg/mL,Botrytis cinerea 47 [16],20 mm
same,zone of inhibition at 32 µg/mL,[17],19 mm
same,zone of inhibition at 500 µg/mL,[17],25 mm
same,MIC,[18],6.4 µg/mL
